Laboratory results as given in publication PMC4709569, “A Novel Naturally Occurring Class I 5-Enolpyruvylshikimate-3-Phosphate Synthase from Janibacter sp. Confers High Glyphosate Tolerance to Rice” (Scientific Reports, 2016).

Columns and labels:
[1] = biological target: T1, aroAJ. sp (Janibacter sp. YB324, UniProt Z9JWC7BZZ5); test: malachite green phosphate release, dose-response fit; assay type: biochemical; details: 1 mM PEP, 1 mM S3P; glyphosate 0.0001-100 mM; 50 mM Hepes pH 7.0, 28 °C, KCl present
T1 construct: pGEX-6p-1 BamHI/EcoRI, E. coli BL21(DE3); GST tag removed by 3C protease; HTCC2649
Source text: malachite green phosphate release, dose-response fit on aroAJ. sp

[2] = biological target: T1, aroAJ. sp; test: malachite green phosphate release, Lineweaver-Burk; assay type: biochemical; details: competitive with respect to PEP; PEP 0.067-0.5 mM, S3P 1 mM; glyphosate 0-5 mM; 50 mM Hepes pH 7.0, 28 °C, KCl present
Source text: malachite green phosphate release, Lineweaver-Burk on aroAJ. sp

[3] = biological target: T2, aroAE. coli (Escherichia coli, UniProt P0A6D3); test: malachite green phosphate release, Lineweaver-Burk; assay type: biochemical; details: read-out: Ki ^c
T2 construct: gene aroA; full length; pGEX-6p-1 BamHI/EcoRI, E. coli BL21(DE3); GST tag removed by 3C protease; similar size to aroAJ. sp (47 kDa on gel)
T2 sequence (P0A6D3 whole entry): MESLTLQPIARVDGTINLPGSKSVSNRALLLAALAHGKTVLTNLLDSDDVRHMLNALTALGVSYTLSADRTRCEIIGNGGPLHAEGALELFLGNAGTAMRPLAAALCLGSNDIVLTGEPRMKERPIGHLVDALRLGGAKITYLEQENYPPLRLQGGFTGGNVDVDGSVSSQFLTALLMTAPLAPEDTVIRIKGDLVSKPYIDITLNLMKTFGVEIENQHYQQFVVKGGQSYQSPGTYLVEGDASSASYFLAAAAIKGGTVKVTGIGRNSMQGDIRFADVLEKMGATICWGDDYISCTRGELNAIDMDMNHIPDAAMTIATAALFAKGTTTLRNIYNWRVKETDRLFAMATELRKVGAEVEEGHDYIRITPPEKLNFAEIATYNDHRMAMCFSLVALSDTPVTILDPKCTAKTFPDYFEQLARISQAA
Source text: malachite green phosphate release, Lineweaver-Burk on aroAE. coli

[4] = biological target: T2, aroAE. coli; test: malachite green phosphate release, dose-response fit; assay type: biochemical
Source text: malachite green phosphate release, dose-response fit on aroAE. coli

[5] = tested on: O=C(O)C1=C[C@@H](OP(=O)(O)O)[C@@H](O)[C@H](O)C1; test: purified protein; details: S3P 0.05-1 mM, PEP fixed 1.0 mM, 50 mM Hepes pH 7.0, 28 °C
[6] = tested on: C=C(OP(=O)(O)O)C(=O)O; test: purified protein; details: PEP 0.05-1 mM, S3P fixed 1.0 mM, 50 mM Hepes pH 7.0, 28 °C

Row | Molecule | IC50 [1] | Ki [2] | Ki [3] | IC50 [4] | Km [5] | Km [6]
1 | O=C(O)CNCP(=O)(O)O [glyphosate] | 3600 ± 200 µM | 373 ± 50 µM | 0.9 ± 0.09 µM | 40 ± 10 µM |  | 
2 | aroAE. coli (Escherichia coli K-12) |  |  |  |  | 115 ± 10 µM | 60 ± 7 µM
